Experimental data: article PMC12566157, “Redox-Active Quinazolinone Thioamide Ag(I) Complexes with Potent Antibacterial Activity: Mechanistic Insights and Hydrogel-Enhanced Efficacy” (Molecules, 2025)
pIC50: −log10 of the molar value.

What was measured:
[1] = system: E. coli; experiment: microbe, parasite or virus in culture; details: Escherichia coli, read-out: E. coli IC50 μg mL-1
Procedure: (§1) The in vitro antibacterial activity of the synthesized Ag(I) complexes was investigated against two bacterial strains: Gram (+) S. aureus and the Gram (−) E. coli. The assays were conducted using the broth microdilution method to determine both the half-maximal inhibitory concentrations (IC50) and minimal inhibitory concentrations (MIC).

[2] = system: S. aureus; experiment: microbe, parasite or virus in culture; details: Staphylococcus aureus, read-out: S. aureus MIC μg mL-1
Procedure: as §1

[3] = system: S. aureus; experiment: microbe, parasite or virus in culture; details: Staphylococcus aureus, read-out: S. aureus IC50 μg mL-1
Procedure: as §1

[4] = target: T1, glutathione reductase (GR) (Escherichia coli, UniProt A0A0H3JIZ9); experiment: enzyme inhibition assay with pure E. coli GR; type: biochemical
T1 construct: gene gor

[5] = target: T2, thioredoxin reductase (TrxR) (Escherichia coli, UniProt P0A9P4); experiment: enzyme inhibition assay with pure E. coli TrxR; type: biochemical
T2 construct: gene trxB
T2 sequence (P0A9P4 2-321): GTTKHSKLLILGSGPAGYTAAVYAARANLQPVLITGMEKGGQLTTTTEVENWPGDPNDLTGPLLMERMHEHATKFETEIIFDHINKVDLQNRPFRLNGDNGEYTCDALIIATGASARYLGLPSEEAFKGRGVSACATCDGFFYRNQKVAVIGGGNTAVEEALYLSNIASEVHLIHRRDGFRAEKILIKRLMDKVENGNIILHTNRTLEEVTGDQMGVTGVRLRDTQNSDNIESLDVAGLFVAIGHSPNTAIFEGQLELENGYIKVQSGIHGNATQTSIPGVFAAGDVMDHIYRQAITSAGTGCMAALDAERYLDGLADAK

T1 sequence (A0A0H3JIZ9 entry or part of it): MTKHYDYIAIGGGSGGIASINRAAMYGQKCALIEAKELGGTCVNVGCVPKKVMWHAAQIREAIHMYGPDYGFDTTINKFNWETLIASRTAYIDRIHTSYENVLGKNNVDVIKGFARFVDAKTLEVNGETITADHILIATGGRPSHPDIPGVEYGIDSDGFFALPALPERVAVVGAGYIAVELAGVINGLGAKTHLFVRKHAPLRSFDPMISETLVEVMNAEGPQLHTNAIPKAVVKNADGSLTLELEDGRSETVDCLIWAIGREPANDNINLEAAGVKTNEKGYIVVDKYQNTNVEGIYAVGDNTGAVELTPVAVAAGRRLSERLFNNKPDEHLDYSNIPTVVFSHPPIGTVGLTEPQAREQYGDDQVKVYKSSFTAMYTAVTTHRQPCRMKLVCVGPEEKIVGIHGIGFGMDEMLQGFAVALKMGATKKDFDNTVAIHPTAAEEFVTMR

How did the IC50 [1] turn out when `c1ccc(P(c2ccccc2)c2ccccc2Oc2ccccc2P(c2ccccc2)c2ccccc2)cc1` [DPEPhos, bis[(2-diphenylphosphino)phenyl]ether] was run?
The IC50 was > 100 µg/mL.

What about the MIC [2] of the same compound?
The MIC was > 100 µg/mL.

And the IC50 [3]?
The IC50 was > 100 µg/mL.

Which results are given for `O=c1[nH]c(=S)[nH]c2ccccc12` [mqztH, 2-mercapto-4(3H)-quinazolinone]?
IC50 [1]: > 100 µg/mL; MIC [2]: > 100 µg/mL; IC50 [3]: > 100 µg/mL

[AgCl(mqztH)(PPh3)2] [compound 1] was tested. Which pIC50 [4] did it give?
The pIC50 was 7.19.

What about the pIC50 [5] of the same compound?
Its pIC50 is 6.67.

`c1ccc(P(c2ccccc2)c2ccccc2)cc1` [PPh3, thriphenylphosphine] was tested. Which IC50 [1] did it give?
The IC50 was > 100 µg/mL.

What about the MIC [2] of the same compound?
The MIC was > 100 µg/mL.

What about the IC50 [3] of the same compound?
The IC50 was > 100 µg/mL.
